Experimental data: patent publication US6982277B2, “P53 inhibitors and therapeutic use of the same” (The Board of Trutees of the University of Illinois, priority 1999, dated 2006)
“Also recorded” adds a separate entry of the source.

How the values were obtained:
p53 [1] = test: survival of mice after whole-body gamma irradiation; type: in vivo, mouse
Protocol: In particular, FIG. 7 illustrates that pifithrin-alpha protects mice from radiation-induced death. In this test, two different strains of mice (C57BL and Balb(c)) were treated with lethal and sublethal doses of whole-body gamma radiation. A comparison was made between (i) untreated unirradiated mice, (ii) unirradiated mice that received a single intraperitoneal (i.p.) injection of PFT-α, (iii) untreated gamma-irradiated mice, and (iv) mice injected intraperitoneally with PFT-α immediately before gamma irradiation.
In the plots of FIG. 7, whole-body gamma irradiated mice (60 total) were divided into four groups. Ten mice from each group were injected i.p. with pifithrin-alpha (2.2 mg/kg) five minutes prior to irradiation. […] The experiments were repeated at least three times with 10 mice per each experimental subgroup.

p53 [2] = test: tissue morphology and apoptosis (TUNEL staining) in small intestine epithelium of gamma-irradiated mice; type: in vivo, mouse; details: C57BL6 wild-type, 24 hours after 10 Gy
Protocol: FIG. 9 contains photographs comparing tissue morphology and apoptosis (TUNEL staining) in the epithelium of the small intestine of C57BL6 wild-type mice (PFT-treated (+) and untreated (−)) 24 hours after 10 Gy of whole-body gamma irradiation. Areas of massive apoptosis are indicated by the arrows. The extensive apoptosis observed in the crypts and villi of the small intestine was abrogated in mice treated with PFT-α before irradiation, which correlates with the changes in thymidine incorporation illustrated in FIG. 8.

[3] = stability and water solubility of the isolated compound; type: physicochemical
Protocol: A solution of compound A (1.54 g, 10 mmol) and para-methylphenacyl bromide (2.34 g, 11 mmol) in 50 ml of benzene was prepared, then stirred at room temperature for 48 hours. Product (V) (a compound of structural formula (I) where X=S and n=1) precipitated from the reaction mixture, was filtered, and then washed with benzene to yield 2.42 g (66% yield) of the compound of structural formula (V).

C8 cells = test: sensitivity to UV irradiation of C8 cells and of C8 with p53 inactivated by GSE56; type: cell-based, mouse
Excerpt: FIG. 4 illustrates that the antiapoptotic activity of PFT-α is p53 dependent, i.e., PFT-α specifically effects p53 wild-type cells.

p53 [4] = test: 14C-thymidine incorporation in tissues of gamma-irradiated mice (autoradiograms); type: in vivo, mouse; details: 10 Gy; for p53-mediated growth arrest in vivo (14C-thymidine incorporation): single i.p. injection 2.2 mg/kg five minutes before irradiation, 2.2 mg/kg
Protocol: Four-week-old p53-deficient mice and p53 wild-type (wt) mice were whole body gamma irradiated (10 Gy). Pifithrin-alpha was injected in one of the p53 wild-type animals five minutes before irradiation. ^14C-thymidine (10 mCi per animal) was injected intraperitoneally into each mouse 8 hours after irradiation. The mice were sacrificed 24 hours after irradiation and whole body sectioned (25 μm thick) using cryostatic microtome were prepared and exposed to X-ray film to monitor the distribution of ^14C in the tissue. FIG. 8 presents autoradiograms of representative sections. Arrows indicate ^14C-thymidine incorporation in the skin and intestine.

[5] = test system: Saos-2 cells transiently expressing p53; test: apoptosis in Saos-2 cells transiently expressing p53; type: cell-based, human; details: 48 hours after transfection
Protocol: Cells were transfected with the plasmid DNA expressing green fluorescent protein (GFP) with the 5× excess of the plasmid carrying either wild-type human p53 (middle and bottom) or with no insert (top). Transfected cells were maintained with (bottom) or without (top and middle) PFT-α. The majority of fluorescent cells transfected with p53-expressing plasmid undergo apoptosis 48 hours after transfection (middle).

rat embryo fibroblasts = test: aging of rat embryo fibroblasts in vitro (growth of presenescent cells); type: cell-based; details: 3 days of cell growth
Excerpt: In FIG. 5(a), cell growth is presented relative to the number of plated cells.

p53 [6] = test: suppression of p53-dependent transcriptional activation (lacZ, X-gal staining) in ConA cells treated with doxorubicin; type: cell-based, mouse; details: 0.2 μg/ml doxorubicin, 24 hours; test compounds about 10 to about 20 μM
[7] = test system: mouse embryo fibroblasts transformed with Ela+ras, line C8; test: p53-dependent apoptosis of C8 cells (crystal violet staining of surviving cells); type: cell-based
Protocol: Then, a p53 inhibitor was applied in a concentration of 1 μM to 20 μM to the test cells in the presence of the p53 activator. Cytotoxicity of the p53 inhibitors also was determined by standard assays. An estimation of antiapoptotic activity of the p53 inhibitor compounds was based on an ability to suppress apoptotic cell death in standard cell systems sensitive to p53-dependent apoptosis (i.e., mouse embryonic fibroblasts transformed with Ela+ras, line C8, described by S. W. Lowe et al., Cell, 74, pp. 957–968 (1993)). p53 dependence of the compound activity was analyzed by testing its effect on p53-deficient cells (i.e., radiosensitivity or drug sensitivity of p53−/− mouse embryonic fibroblasts transformed with Ela+ras, line A4, described by Lowe et al., 1993).
FIG. 3 illustrates that pifithrin-alpha suppresses p53-dependent apoptosis caused by doxorubicin. Equal numbers of mouse embryo fibroblasts transformed with El+ras (line C8, highly sensitive to p53-dependent apoptosis) were plated in the wells of 6-well plates containing 0, 0.4, and 0.8 μg/ml of doxorubicin, treated with DMSO and PFT-α (10 μM) for 48 hours, fixed with methanol, and stained with crystal violet, followed by elution of the dye with 1% SDS. Optical density ([…]) was determined using a BioTek EL311 microplate reader. The intensity of staining reflects the number of surviving cells. […]

p53 [8] = test: β-Gal activity in UV-irradiated ConA cells (colorimetric assay); type: cell-based, mouse; details: UV 25 J/m^2, 8 hours; 10, 20, and 30 μM
Protocol: The cells were collected 8 hours after UV treatment, and β-Gal expression in the extracts was estimated by a standard colorimetric assay. (See, for example, V. A. Tron et al., Am. J. Pathol., 153, p. 597 (1998).)

[9] = test system: p53-deficient tumor xenografts; test: therapy response of p53-deficient tumors in mice; type: in vivo, mouse
Excerpt: The above-described tests using PFT-α and PFT-β illustrate the therapeutic use of temporary p53 inhibitors to reduce the side effects of radiation therapy or chemotherapy for human cancers that have lost functional p53.

Cc1ccc(C(=O)Cn2c3c(sc2=N)CCCC3)cc1 [PFT-α, 2-[2-imino-4,5,6,7-tetrahydro-1,3-benzothiazol-3(2H)-yl]-1-(4-methylphenyl)-1-ethanone]
survival at higher, lethal doses of irradiation (p53 [1]; 2.2 mg/kg i.p. five minutes prior to irradiation): Significant protection; also recorded: rescue mice from lethal doses of gamma radiation using a single i.p. injection | survival at 60% killing doses of gamma irradiation (p53 [1]; 8 Gy C57BL, 6 Gy Balb/c, 2.2 mg/kg i.p. five minutes prior to irradiation, 2.2 mg/kg): completely rescued mice of both strains; also recorded: strong rescuing effect in both mouse strains | body weight after irradiation (p53 [1]; C57BL6, 8 Gy): lost less weight than irradiated mice that were not pretreated with the drug; also recorded: abrogated the gradual loss of weight | survival of p53-null mice after lethal irradiation (p53 [1]; p53-null mice): did not protect p53-null mice from lethal irradiation | apoptosis in crypts and villi of the small intestine (TUNEL) (p53 [2]): abrogated | stability, water solubility [3]: stable, water-soluble | sensitivity to UV irradiation of C8 with p53 inactivated by GSE56 (C8 cells; p53 inactivated by dominant negative mutant GSE56): did not depend on the presence of PFT-α; also recorded: has no effect on survival of p53-deficient cells after genotoxic stress | sensitivity of C8 cells to UV irradiation (C8 cells; p53 wild-type C8): depends on the presence of pifithrin-alpha | apoptosis in skin and small intestine of gamma-irradiated mice (p53 [4]; 2.2 mg/kg i.p.): inhibits apoptosis in the skin and small intestine of gamma-irradiated mice | p53-mediated growth arrest in vivo (14C-thymidine incorporation) (p53 [4]): less pronounced; also recorded: suppress p53-dependent radiation-induced growth arrest in rapidly proliferating mouse tissues | p53-mediated growth arrest in vivo (14C-thymidine incorporation) (p53 [4]; listed as pifithrin-alpha): capable of blocking p53-mediated growth arrest in vivo | apoptosis of cells transfected with p53-expressing plasmid [5]: Apoptosis was inhibited in the presence of PFT-α | aging of rat embryo fibroblasts (growth stimulation of presenescent cells) (rat embryo fibroblasts): delays aging of rat embryo fibroblasts in vitro | suppression of p53-dependent lacZ expression (X-gal) (p53 [6]): effectiveness of PFT-α in inhibiting p53 | apoptotic death of C8 cells induced by doxorubicin ([7]; 10 μM, 48 hours, 0.4 and 0.8 μg/ml doxorubicin): inhibited apoptotic death of C8 cells induced by doxorubicin | p53-dependent apoptosis caused by other stresses ([7]; etoposide, taxol, cytosine arabinoside, UV light, gamma radiation): suppresses p53-dependent apoptosis caused by etoposide, taxol, cytosine arabinoside, UV light, and gamma radiation | activation of p53-responsive lacZ (β-Gal activity) (p53 [8]): blocked activation of p53-responsive lacZ in ConA cells induced by ultraviolet (UV) light in a dose-dependent manner | radiation response of p53-deficient tumor xenografts ([9]; i.p. injection, p53^+/+ nude mice): did not change the radiation response | efficacy of chemo- or radiation therapy of p53 deficient mouse tumors ([9]; mouse, in vivo): do not reduce the efficacy of chemo- or radiation therapy of p53 deficient mouse tumors
